From patent publication EP2108954A1, “A test system for detecting intracellular cyclic nucleotide level and methods and uses thereof” (Max-Planck-Gesellschaft zur Förderung der Wissenschaften …, priority 2008, dated 2009)

Target: T1, Or22a and Or83b (Drosophila melanogaster, UniProt P81909+Q9VNB5)
T1 construct: expressed in transfected cells; host or cells: HEK293
T1 sequence (P81909 1-397): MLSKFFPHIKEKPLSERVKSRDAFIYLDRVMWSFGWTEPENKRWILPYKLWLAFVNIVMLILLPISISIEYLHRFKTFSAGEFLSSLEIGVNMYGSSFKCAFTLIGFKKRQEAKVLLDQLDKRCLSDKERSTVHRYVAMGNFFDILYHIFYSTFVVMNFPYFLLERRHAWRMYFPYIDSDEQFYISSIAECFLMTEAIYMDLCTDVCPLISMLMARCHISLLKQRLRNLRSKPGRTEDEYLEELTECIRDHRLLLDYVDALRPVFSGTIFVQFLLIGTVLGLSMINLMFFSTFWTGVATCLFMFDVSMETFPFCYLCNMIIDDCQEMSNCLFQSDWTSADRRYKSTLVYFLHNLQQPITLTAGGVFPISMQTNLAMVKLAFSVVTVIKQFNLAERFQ
T1 sequence (Q9VNB5 1-486): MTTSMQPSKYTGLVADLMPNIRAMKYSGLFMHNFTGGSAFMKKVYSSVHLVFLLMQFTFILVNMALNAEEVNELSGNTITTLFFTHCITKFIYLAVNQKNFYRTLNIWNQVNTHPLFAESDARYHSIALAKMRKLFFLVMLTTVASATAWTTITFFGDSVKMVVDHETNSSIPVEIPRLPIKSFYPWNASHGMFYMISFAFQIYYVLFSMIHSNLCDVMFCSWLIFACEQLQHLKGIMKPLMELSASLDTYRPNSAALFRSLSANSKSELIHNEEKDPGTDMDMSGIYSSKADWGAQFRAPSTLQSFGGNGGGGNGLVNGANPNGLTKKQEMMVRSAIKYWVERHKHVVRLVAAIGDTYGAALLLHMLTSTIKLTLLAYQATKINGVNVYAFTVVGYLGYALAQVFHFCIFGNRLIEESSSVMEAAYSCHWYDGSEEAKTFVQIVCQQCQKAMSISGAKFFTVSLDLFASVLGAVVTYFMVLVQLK
Assay: Outside-out patch recording from HEK293 cells coexpressing Or22a and Or83b
Type: cell-based
Settings: Etb 100 nM, 1 s, -60 mV; for Ii Peak size / Ii Peak time / Ii Recov. / Im Latency / Im Peak size / Im Peak time / Im Recov.: Or22a C-terminal GFP fusion protein
Procedure: HEK293 cells were cultured as described by Wicher and colleagues (Wicher et al., J. Biol. Chem. 281, 3227-36 (2006)). In brief, HEK293 cells were cultured at a density of ∼2*10^4 per 35-mm dish and transfected with 1 µg pcDNA3-DOR22a-GFP and 1 µg pcDNA3-DOR83b-GFP (Neuhaus, et al., Nat. Neurosci. 8, 15-17 (2005); DNAs were a generous gift of Dr. E. Neuhaus and Dr. H. Hatt) using Roti-Fect transfection kit (Roth, Karlsruhe, Germany). In some experiments we transfected cells with pcDNA3-DOR22a-GFP or pcDNA3-DOR83b-GFP alone. We also examined the properties of DOR47a, which was cloned, using standard molecular biology methods into a pcDNA3.1(-) expression vector. To test for putative G-protein coupling, cells were transfected with the respective OR-DNA together with 1.5 µg hHCN2/pcDNA3 (provided by M. Biel, Munich, Germany), with 1 µg hKCNQ4/pcDNA3.1 or with 1 µg hCNGA2/pCMV6-XL4 (Origene, Rockville, MD, USA).
Ion currents in HEK293 cells were measured with the patch-clamp technology as described (Wicher et al, J. Biol. Chem. 281, 3227-36 (2006)). In brief, ion currents in HEK293 cells were measured at room temperature using whole-cell patch-clamp with appropriate compensation of series resistance and of capacitive currents. Additional experiments were performed in the outside-out configuration. Current measurements and data acquisition were performed using an EPC9 patch-clamp amplifier controlled by PatchMaster software (both HEKA Elektronik, Lambrecht, Germany). Patch-clamp pipettes were fabricated from borosilicate capillaries. Pipettes for whole-cell recordings had resistances of 2-4 MΩ for excised-patch recordings the pipette resistance was up to 15 MΩ.
The standard pipette solution contained (in mM) 140 KCl, 4 NaCl, 2.2 CaCl2, 2 Mg-ATP, 0.05 Na-GTP, 5 EGTA, 10 HEPES (pH 7.3), and the standard bath solution contained (in mM) 135 NaCl, 5 KCI, 1 CaCl2, 1 MgCl2, 10 HEPES, 10 glucose (pH 7.4). To differentiate between ionotropic and metabotropic pathways of receptor activation (Fig. 2a-d) the pipette solution contained either 2 mM ATP plus 2 mM GTP or 2 mM ADP plus 2 mM GDP (both for whole-cell and outside-out configuration). For the preparation of Cl^--free solutions the chloride salts were substituted by gluconate salts. The pipette Cs^+ solution contained (in mM) 140 CsCl, 1 Mg-ATP, 10 EGTA, 10 HEPES (pH = 7.3), and the Cs^+ bath solution contained (in mM) 140 CsCl, 15 glucose, 15 HEPES (pH = 7.4). The Ca^2+-free bath solution contained (in mM) 140 NaCl, 15 glucose, 15 HEPES, and the Na^+-free bath solution contained (in mM) 140 NMDG-Cl, 10 CaCl2, 10 glucose, 15 HEPES.
With the exception of GDP-γ-S, which was applied via the patch pipette, all substances were applied to the bath using either a bath perfusion system (BPS4 from ALA, New York, USA) or a rapid solution changer (RSC160 from Biologic, Claix, France) which were controlled by the PatchMaster software (HEKA Elektronik).

SMILES: CCCC(=O)OCC [Etb, ethyl butyrate]
- latency of Ii: < 0.5 s
- Ii Peak size (ADP and GDP (-)): 1.6 ± 0.3 pA
- Ii Peak time (ADP and GDP (-)): 1.38 ± 0.23 s
- Ii Recov. (ADP and GDP (-)): 4.5 ± 1.2 s
- Im Latency (ADP and GDP (-)): 11 ± 3 s
- Im Peak size (ADP and GDP (-)): 0.5 ± 0.2 pA
- Im Peak time (ADP and GDP (-)): 36 ± 8 s
- Im Recov. (ADP and GDP (-)): 58 ± 9 s
- Ii Peak size (ATP and GTP (+)): 1.3 ± 0.3 pA
- Ii Peak time (ATP and GTP (+)): 1.13 ± 0.11 s
- Ii Recov. (ATP and GTP (+)): 5.2 ± 1.1 s
- Im Latency (ATP and GTP (+)): 10 ± 2 s
- Im Peak size (ATP and GTP (+)): 1.7 ± 0.4 pA
- Im Peak time (ATP and GTP (+)): 33 ± 4 s
- Im Recov. (ATP and GTP (+)): 45 ± 7 s
